According to patent US7183061B2, “Method of expressing Heliothis ecdysone receptor fusion protein” (Syngenta Limited, priority 1996, dated 2007):

Key:
[1] = biological target: T1, glucocorticoid/Drosophila ecdysone chimeric receptor (UniProt P04150+P34021); experiment: Maize protoplast GUS reporter assay with pMF6GREcRS and p221.9GRE6; type: cell-based; conditions: maize protoplasts, reporter plus effector
T1 construct: expressed in transfected cells; host or cells: maize suspension-culture protoplasts
T1 sequence (P04150+P34021 with tags, fused parts or gaps): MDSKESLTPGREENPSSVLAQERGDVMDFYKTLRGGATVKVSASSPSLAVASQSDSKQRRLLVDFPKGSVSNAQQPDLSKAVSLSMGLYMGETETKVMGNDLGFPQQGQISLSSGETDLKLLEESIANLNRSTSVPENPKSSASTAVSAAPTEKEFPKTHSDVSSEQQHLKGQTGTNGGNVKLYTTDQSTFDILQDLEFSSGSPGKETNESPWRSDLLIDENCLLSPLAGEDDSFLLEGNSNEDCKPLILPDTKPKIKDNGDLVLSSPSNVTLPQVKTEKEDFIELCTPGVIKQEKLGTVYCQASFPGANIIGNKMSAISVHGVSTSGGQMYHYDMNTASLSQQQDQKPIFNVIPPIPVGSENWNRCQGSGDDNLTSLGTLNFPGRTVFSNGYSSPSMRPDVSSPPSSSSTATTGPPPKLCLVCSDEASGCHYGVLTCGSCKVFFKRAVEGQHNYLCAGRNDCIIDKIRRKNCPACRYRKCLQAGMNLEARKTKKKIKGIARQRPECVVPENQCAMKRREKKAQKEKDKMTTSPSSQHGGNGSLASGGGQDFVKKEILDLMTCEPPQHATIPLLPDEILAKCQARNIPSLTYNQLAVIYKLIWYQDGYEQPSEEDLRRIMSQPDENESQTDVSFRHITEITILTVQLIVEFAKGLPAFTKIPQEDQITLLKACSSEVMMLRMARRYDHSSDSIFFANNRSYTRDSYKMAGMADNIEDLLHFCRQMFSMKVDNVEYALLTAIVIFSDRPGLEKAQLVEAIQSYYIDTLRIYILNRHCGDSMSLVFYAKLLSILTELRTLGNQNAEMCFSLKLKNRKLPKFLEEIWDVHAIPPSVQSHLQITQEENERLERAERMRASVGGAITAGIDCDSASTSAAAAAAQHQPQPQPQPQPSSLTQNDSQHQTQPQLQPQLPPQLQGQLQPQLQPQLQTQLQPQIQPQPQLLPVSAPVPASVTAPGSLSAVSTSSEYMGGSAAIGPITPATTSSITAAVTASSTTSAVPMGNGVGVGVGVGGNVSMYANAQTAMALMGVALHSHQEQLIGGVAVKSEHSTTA
Procedure: Protoplasts were isolated from a maize suspension culture derived from BE70×A188 embryogenic callus material, which was maintained by subculturing twice weekly in MS0.5mod. (MS medium supplemented with 3% sucrose, 690 mg/l proline, 1 g/l myo-inositol, 0.2 g/l casein acid hydrolysate, 0.5 mg/l 2,4-D, pH 5.6). Cells from suspensions two days post subculture were digested in enzyme mixture (2.0% Cellulase RS, 0.2% Pectolyase Y23, 0.5 M Mannitol, 5 mM CaCl2.2H2O, 0.5% MES, pH 5.6, ˜660 mmol/kg) using ˜10 ml/g cells, incubating at 25° C., dim light, rotating gently for ˜2 hours. The digestion mixture was sieved sequentially through 250 μm and 38 μm sieves, and the filtrate centrifuged at 700 rpm for 3.5 minutes, discarding the supernatant. The protoplasts were resuspended in wash buffer (0.358 M KCl, 1.0 mM NH4NO3, 5.0 mM CaCl2.2H2O, 0.5 mM KH2PO4, pH 4.8, ˜670 mmol/kg) and pelleted as before. This washing step was repeated. The pellet was resuspended in wash buffer and the protoplasts were counted. Transformation was achieved using a Polyethylene glycol method based on Negrutiu et al. Protoplasts were resuspended at 2×10^6/ml in MaMg medium (0.4 M Mannitol, 15 mM MgCl2, 0.1% MES, pH 5.6, ˜450 mmol/kg) aliquotting 0.5 ml/treatment (i.e. 1×10^6 protoplasts/treatment). Samples were heat shocked at 45° C. for 5 minutes then cooled to room temperature. 10 μg each of p221.9GRE6 and pMF6HR1PAT (GR) (1 mg/ml)/treatment were added and mixed in gently, followed by immediate addition of 0.5 ml warm (˜45° C.) PEG solution (40% PEG 3,350 MW in 0.4 M Mannitol, 0.1 M Ca(NO3)2, pH 8.0), which was mixed in thoroughly but gently. Treatments were incubated at room temperature for 20–25 minutes, then 5 ml 0.292 M KCl (pH 5.6, ˜530 mmol/kg) was added step-wise, 1 ml at a time, with mixing. The treatments were incubated for a further 10–15 minutes prior to pelleting the protoplasts by centrifuging as before. […] Protein concentrations of tissue homogenates were determined by the Bio-Rad protein assay (Bradford, 1976). […]

HEcR with αRXR = experiment: Native HEcR reporter gene expression in HEK293 cells co-transfected with αRXR; type: cell-based, Heliothis virescens; conditions: αRXR co-transfected along with effector and reporter
Excerpt: A third effector construct was made with the 5′ end sequences of pSK16.1 by PCR. The PCR approach involved PCR amplifying the 5′ end sequences using a 5′ oligonucleotide containing a HindIII restriction cloning site, the Kozak consensus sequence followed by nucleotide sequence encoding for a Methionine start and two Arginines to be added to the 5′ end of the amplified fragment: (16H3K 5′ […] 3′; SEQ ID NO: 28), the 3′ oligonucleotide used was HecrNdeI. The resulting fragment was restriction enzyme digested, gel purified and subcloned with an NdeI/NotI 19R fragment into pcDNA3 NdeI/NotI vector. The plasmid was named pcDNA3H3 KHEcR.
The reporter plasmid to be co-transfected with the expression vector contained 4 copies of the Hsp27 ecdysone response element (Riddihough and Pelham, 1987) fused to β-globin promoter and the β-Galactosidase gene. The tandem repeats of the ecdysone response element were synthesised as two complementary oligonucleotides which when annealed produced a double stranded DNA molecule flanked by an SpeI site at the 5′ end and a ClaI site at the 3′ end:
The resulting 135 bp DNA fragment was ligated to the vector pSWBGAL SpeI/ClaI resulting in pSWREcR4 (FIG. 8). The co-transfection of the two plasmids should result in B-galactosidase activity in the presence of ligand. […]

CC(C)CC[C@@H](O)[C@](C)(O)[C@H]1CC[C@@]2(O)C3=CC(=O)[C@]4(O)C[C@@H](O)[C@@H](O)C[C@]4(C)[C@H]3[C@H](O)C[C@]12C [Muristerone A]
marker gene activity ([1]; 100 μM): significant elevation of marker gene activity | induction of reporter activity compared to the untreated cells (HEcR with αRXR): 9 fold

CCc1ccc(C(=O)NN(C(=O)c2cc(C)cc(C)c2)C(C)(C)C)cc1 [RH5992, 3,5-dimethylbenzoic acid 1-1(1,1-dimethylethyl)-2(4-ethylbenzoyl)hydrazide]
chemical induced reporter gene activity / induced levels of expression ([1]; concentration not given): no chemical induced reporter gene activity | induction of reporter activity compared to the untreated cells (HEcR with αRXR): 9 fold
